According to patent US20250320471A1, “Method for Producing Compounds, Method for Producing Compound Library, Compound Library, and Screening Method” (The University of Tokyo, priority 2021, published 2025):

Key:
LimF [1] = assay: His-prenylation of low molecular weight compounds, peptides and proteins by LimF; type: biochemical, Limnothrix sp. CACIAM 69d; details: 125 μM substrate, 100 μM LimF, 2 mM GPP, 20 hours, standard conditions
From the text: Next, various low molecular weight compounds, peptides, and proteins, including various compounds that have already been approved as pharmaceuticals, were subjected to His-prenylation facilitated by LimF.

Serum stability test = details: 5 μM peptide in human serum at 37° C.
Protocol: After various incubation times, a sample of 4 μL was taken from the reaction system, and the reaction was stopped by mixing with an equal amount (4 L) of methanol. After centrifugation at 13,000 rpm for 5 minutes, the supernatant was collected, and after adding 4 times the amount of 1% TFA-aqueous solution, centrifugation was performed for an additional 5 minutes. 1 μL of the obtained supernatant was measured by LC/MS, and the amount of each remaining peptide was quantified.

DPP-4 = DPP-4 (Homo sapiens, UniProt P27487); assay: DPP-4 digestion test; details: 5 μM peptide, Tris-Cl pH 8.0, 2.5 ng/L DPP-4, 37° C.
Protocol: After various incubation times, a sample of 4 μL was taken from the reaction system, and the reaction was stopped by adding 4 times the amount (16 L) of a 1% TFA-aqueous solution. After centrifugation at 13,000 rpm for 5 minutes, 1 μL of the supernatant was measured by LC/MS, and the amount of each remaining peptide was quantified.

GLP1R = target: T1, GLP1R (Homo sapiens, UniProt P43220); assay: cAMP production activation test (cAMP Hunter eXpress GLP1R CHO-K1 GPCR assay kit); type: cell-based; details: GLP1R CHO-K1 cells
T1 construct: host or cells: CHO-K1
Protocol: The concentration range of the used peptides was from 0.33 μM to 20 nM.

LynF = details: Tyr C5 O-prenylation; cited from earlier work
PagF = details: Tyr C5 O-prenylation; cited from earlier work
LimF [2] = assay: Prenylation of high molecular weight proteins by LimF (MALDI-TOF-MS); type: biochemical, Limnothrix sp. CACIAM 69d; details: 10 μM protein, 10 μM LimF, 2 mM GPP, 20 hours
Protocol: Moreover, His-prenylation by LimF was also performed for two types of high molecular weight proteins (acetylated bovine-derived albumin (Ac-BSA (Wako Pure Chemical Industries)) and horse-derived glutathione-S-transferase (GST (Sigma-Aldrich Japan))). Specifically, 10 μM Ac-BSA or 10 μM GST was reacted for 20 hours in the presence of 10 μM LimF and 2 mM GPP under previously optimized standard conditions. After desalting the reaction solution after the reaction by solid phase extraction (SPE C-TIP (Nikkyo Technos)), using sinapinic acid as a matrix, analysis was performed using a matrix-assisted laser desorption ionization-time-of-flight mass spectrometer (MALDI-TOF-MS, ultrafleXtreme manufactured by Bruker Daltonics).

bcLimE2 = target: T2, bcLimE2
T2 chain: RYPHEEIP

teR6-H5A = target: T3, teR6-H5A
T3 chain: FRGNATYIPC

T1 sequence (P43220 24-463): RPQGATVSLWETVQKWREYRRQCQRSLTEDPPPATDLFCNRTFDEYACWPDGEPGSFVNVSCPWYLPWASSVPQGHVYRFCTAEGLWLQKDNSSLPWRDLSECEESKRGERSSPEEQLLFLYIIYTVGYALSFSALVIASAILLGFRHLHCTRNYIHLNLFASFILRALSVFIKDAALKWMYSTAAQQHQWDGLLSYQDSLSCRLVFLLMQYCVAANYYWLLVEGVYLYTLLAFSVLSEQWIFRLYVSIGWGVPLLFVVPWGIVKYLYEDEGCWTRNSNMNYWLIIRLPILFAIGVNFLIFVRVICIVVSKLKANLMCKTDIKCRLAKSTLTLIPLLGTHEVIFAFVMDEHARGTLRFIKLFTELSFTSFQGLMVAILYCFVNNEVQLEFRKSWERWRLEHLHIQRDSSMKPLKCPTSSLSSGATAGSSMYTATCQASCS
Chain of DPP-4 (P27487 whole entry, species assumed): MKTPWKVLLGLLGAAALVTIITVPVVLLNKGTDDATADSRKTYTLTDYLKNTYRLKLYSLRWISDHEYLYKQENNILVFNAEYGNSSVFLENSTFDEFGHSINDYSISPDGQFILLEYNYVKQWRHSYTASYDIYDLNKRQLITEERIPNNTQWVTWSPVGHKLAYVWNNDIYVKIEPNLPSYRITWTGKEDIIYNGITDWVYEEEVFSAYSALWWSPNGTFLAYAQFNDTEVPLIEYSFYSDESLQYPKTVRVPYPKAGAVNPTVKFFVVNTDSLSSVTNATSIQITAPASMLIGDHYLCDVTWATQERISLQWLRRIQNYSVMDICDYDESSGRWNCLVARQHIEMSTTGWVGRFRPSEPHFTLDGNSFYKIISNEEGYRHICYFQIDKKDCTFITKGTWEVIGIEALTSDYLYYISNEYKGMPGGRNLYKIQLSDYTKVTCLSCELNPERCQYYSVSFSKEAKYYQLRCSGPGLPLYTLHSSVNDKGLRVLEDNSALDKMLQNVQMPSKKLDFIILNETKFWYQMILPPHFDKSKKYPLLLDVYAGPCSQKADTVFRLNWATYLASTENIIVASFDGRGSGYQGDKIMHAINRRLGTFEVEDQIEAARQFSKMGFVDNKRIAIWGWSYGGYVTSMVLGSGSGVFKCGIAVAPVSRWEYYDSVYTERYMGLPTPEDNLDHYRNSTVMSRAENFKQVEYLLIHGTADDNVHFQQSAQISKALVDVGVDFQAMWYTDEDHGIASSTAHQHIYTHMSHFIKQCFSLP

## CC[C@H](C)[C@H](NC(=O)C(Cc1ccccc1)NC(=O)[C@H](CCC(=O)O)NCCCCN[C@@H](CCCCN)C(=O)C(=O)[C@H](C)NC(=O)C(CCC(N)=O)NC(=O)CNC(=O)C(CCC(=O)O)NC(=O)[C@H](CC(C)C)NC(=O)C(Cc1ccc(O)cc1)NC(=O)[C@H](CO)NC(=O)C(CO)NCCCCN[C@H](C(=O)C(=O)[C@H](CC(N)=O)NC(=O)C(CO)NC(=O)[C@@H](NC(=O)C(Cc1ccccc1)NC(=O)[C@@H](NC(=O)CNC(=O)[C@H](CCC(=O)O)NC(=O)C(C)NC(=O)[C@@H](N)Cc1cnc[nH]1)[C@@H](C)O)[C@@H](C)O)C(C)C)C(=O)NC(C)C(=O)N[C@@H](Cc1c[nH]c2ccccc12)C(=O)NC(CC(C)C)C(=O)N[C@H](C(=O)NC(CCCCN)C(=O)NCC(=O)C(=O)[C@H](CCCNC(=N)N)NN)C(C)C (some centres unmarked) [GLP-1, HAEGTFTSDVSSYLEGGAAKEFIAWLVKGR]
LimF [1]
  His-prenylation efficiency (LC/MS): 75%
Serum stability test
  serum stability (remaining peptide by LC/MS): rapid degradation
DPP-4
  stability in DPP-4 digestion test (remaining peptide by LC/MS): rapid degradation
GLP1R
  cAMP production activation ability: strongly activated cAMP production

## CC(C)(C)OC(=O)N[C@@H](Cc1ccc(O)cc1)C(=O)O [N-boc-L-Tyr]
LynF
  Kcat: 0.0177 s⁻¹
  Km: 14 mM
PagF
  Kcat: 0.183 s⁻¹
  Km: 6.2 mM

## Ac-BSA: acetylated bovine-derived albumin
LimF [2]
  number of prenylations by LimF (mass spectrum): two locations

B1: LimF (wild-type) (protein)
chain: MKKRKSSKVFKSTIAPEEKLRYIGNHKQAFDIEPLYPLALFEEFVATTGDCIIECSGKIKQDQLYPARIDLQFSDKHHFHNIHTSIDFLKRAASRTDVNLNLDILATFLAGNFDYSKVQNILAGIDLRQNLGESKLKLFIRIGDYPAKMAVAKHLCNITPESEAMLRSDTLHIGFDFYLDGRSAIELYPELKKDEFNHPFIYNQLKTILSPEALKPLPLCNLFGIGLSPANEANVLYYHLENIEDFLSYFPINDTARRVHDFYLQQEGSRRMWVALSESEMKAGRINNVNLYYSKAFTSQNP
bcLimE2
  Km (mM), steady-state kinetics of His-prenylation with GPP: 0.31 mM
teR6-H5A
  Km (mM), steady-state kinetics of Tyr-prenylation with GPP: 7.3 mM
